# Reference: patent US8124390B2, “Aromatic prenyltransferases, nucleic acids encoding same and uses therefor” (The Salk Institute for Biological Studies, priority 2005, dated 2012)
# How the values were obtained:
# Orf2 [1] = assay: Promiscuous activity of ORF2 with flavonoids and other compounds, [14C]GPP TLC; format: biochemical, Streptomyces sp. strain CL190; settings: for Orf2 prenyltransferase activity in the presence of flavonoids, isoflavonoids and related compounds: GPP as prenyl donor, FIG. 2B; for function as substrates for Orf2 (converted into prenylated derivatives): purified recombinant Orf2 incubated with prenyl donor and prenyl acceptor, FIGS. 2A and 2B
# Description: FIG. 2B illustrates the promiscuous activity of Orf2. Several assays were conducted, employing a variety of potential substrates, i.e., 1,3-DHN (1), 1,6-DHN (2), 2,7-DHN (3), 4-HPP (4) and several isoflavonoids and polyketide derivatives, including daidzein (7,4′-dihydroxyisoflavonone, 5), formononetin (7-hydroxy, 4′-methoxyisoflavonone, 6), fisetin (3,3′,4′,7-tetrahydroxyflavone, 7), genistein (5,7,4′-trihydroxyisoflavone, 8), naringenin (5,7,4′-trihydroxyflavonone, 9), flaviolin (10), olivetol (11), olivetolic acid (12), and resveratrol (3,4′,5-trihydroxystilbene, 13). The chemical structures of four reaction products (i.e., 1,6-dihydroxy 2-geranyl naphthalene (14), 1,6-dihydroxy 5-geranyl naphthalene (15), 6-geranyl naringenin (16) and 7-O-geranyl naringenin (17)) were determined by both MS and ^1H NMR analyses. The reaction buffer consisted of 50 mM HEPES (pH 7.5), 5 mM MgCl2, and 0.1 mM GPP, 0.009 mM [^14C]GPP, and 0.1 mM of each substrate, in a final volume of 20 μl. The reaction was initiated by adding 30 μg of Orf2 to the assay mixture. After incubation at 25° C. for 6 hours, the mixture was dried, and spotted on a silica gel TLC plate. The TLC plate was developed with a chloroform/methanol (15:1) solvent mixture. Reaction products were detected with a [^14C] imaging plate (Fuji Photo Film).
# The reaction buffer employed contained 50 mM HEPES (pH 7.5), 5 mM DTT (as needed), 5 mM MgCl2, 0.1 mM of each prenyl acceptor, 0.1 mM GPP, and 0.01 mM [^14C]GPP in a final volume of 20 μl. The reaction was initiated by adding 20 μg of ORF2 protein to the assay mixture. After incubation at room temperature for 4 hrs., the reaction mixture was dried using SpeedVac and the dried residue was spotted on a silica gel TLC plate. The plate was developed with chloroform:methanol (15-30:1). Reaction products were detected with a phosphoimager. The compounds tested were daidzein, fisetin, formononetin, genistein, naringenin, 4-HPP and DHN2.
# Orf2 [2] = assay: Detection of prenyltransferase activity of ORF2, TLC with UV 254 nm, incl. Mg2+ dependence; format: biochemical, Streptomyces sp. strain CL190; settings: for reaction products of prenyl acceptor with ORF2: additional studies of Example 5; for prenyltransferase activity of ORF2: 5 mM prenyl acceptor, 5 mM MgCl2, 4 hrs room temperature; for prenylated products with ORF2: 5 mM DHN2, 5 mM GPP
# HypSc = assay: Detection of prenyltransferase activity of HypSc (TLC); format: biochemical, Streptomyces coelicolor A3(2); settings: for reaction products of prenyl acceptor with hypSc: assay of Example 5 repeated with hypSc
# Description: FIG. 7 relates to the functional evaluation of HypSc. Thus, HypSc prenyltransferase activity was assayed as described above with respect to FIG. 2A, using 1,6-DHN as a prenyl acceptor (in each of lanes 1-4), with no prenyl acceptor in lane 1, DMAPP in lanes 2 and 3, and GPP in lane 4. No Mg^2+ was used in lane 2. The samples were incubated overnight at room temperature.
# In order to validate this model, HypSc was subcloned from genomic DNA, and over-expressed in E. coli as an octa-histidine tagged protein and purified for Ni^2+-chelation chromatography. The purified enzyme was then assayed for prenyltransferase activity using DMAPP and GPP as prenyl donors.
# The assay described in Example 5 was repeated with hypSc and (a) 1,6-DHN (2), (b) 2,7-DHN (3), (c) daidzein ([…], 5), (d) genistein (5,7,4′-trihydroxyisoflavone, 8), (e) naringenin (5,7,4′-trihydroxyflavonone, 9), (f) olivetol (12), and (g) resveratrol (3,4′,5-trihydroxystilbene, 13).
# antibacterial = settings: Schutz, Phytochemistry 40:1273-1277 (1995); cited from earlier work
SMILES,"Orf2 prenyltransferase activity in the presence of flavonoids, isoflavonoids and related compounds (Orf2 [1])",function as substrates for Orf2 (converted into prenylated derivatives) (Orf2 [1]),reaction products of prenyl acceptor with ORF2 (Orf2 [2]),reaction products of prenyl acceptor with hypSc (HypSc),further results
"O=c1c(O)c(-c2ccc(O)c(O)c2)oc2cc(O)ccc12 [fisetin, 3,3′,4′,7-tetrahydroxyflavone]",little or no activity,–,–,–,–
N[C@@H](Cc1ccccc1)C(=O)O [phenylalanine],–,did not serve as substrates,–,–,–
"O=c1c(-c2ccc(O)cc2)coc2cc(O)cc(O)c12 [genistein, 5,7,4′-trihydroxyisoflavone]",showed prenyltransferase activity,–,7-O-geranyl-genistein,no reaction products detected,–
CCCCCc1cc(O)cc(O)c1 [olivetol],active,–,2-geranyl-olivetol and 4-geranyl-olivetol,2-dimethylallyl-olivetol and 4-dimethylallyl-olivetol,–
"CC(C)=CCC/C(C)=C/COP(=O)(O)OP(=O)(O)O [GPP, geranyl diphosphate]",–,–,–,–,"relative activity of Orf2 with prenyl donor (Orf2 [2]; purified recombinant Orf2, prenyl donor DMAPP (C5), GPP (C10) or FPP (C15) with aromatic acceptors): highest relative activity"
"Oc1cc(O)c2ccccc2c1 [1,3-DHN, 1,3-dihydroxynaphthalene]",–,function as substrates,–,–,prenyltransferase activity of ORF2 (Orf2 [2]; either prenyl donor FPP or GPP): prenyltransferase activity was observed
"O=C(O)C(=O)Cc1ccc(O)cc1 [4-HPP, 4-hydroxyphenylpyruvate]",–,converted by Orf2 into a prenylated derivative,–,–,–
"Oc1ccc2ccc(O)cc2c1 [2,7-DHN]",–,function as substrates,"1-geranyl-2,7-DHN and 1,6-digeranyl-2,7-DHN","1-dimethylallyl-2,7-DHN",prenyltransferase activity of ORF2 (Orf2 [2]; prenyl donor GPP): prenyltransferase activity was observed
N[C@@H](Cc1ccc(O)cc1)C(=O)O [tyrosine],–,did not serve as substrates,–,–,–
CC(C)=CCC/C(C)=C/Cc1c(O)cc2c(c1O)C(=O)C[C@@H](c1ccc(O)cc1)O2 [6-geranyl naringenin],–,–,–,–,antibacterial activity (antibacterial): significant antibacterial activity
"Oc1ccc(C=Cc2cc(O)cc(O)c2)cc1 [resveratrol, 3,4′,5-trihydroxystilbene]",showed prenyltransferase activity,–,4-geranyl-resveratrol,4-dimethylallyl-resveratrol,–
"Oc1ccc2c(O)cccc2c1 [1,6-DHN, 1,6-dihydroxynaphthalene]",–,function as substrates,"5-geranyl-1,6-DHN and 2-geranyl-1,6-DHN","5-dimethylallyl-1,6-DHN","prenylated products with ORF2 (Orf2 [2]; absence of magnesium): no prenylated products were observed; prenylated products with ORF2 (Orf2 [2]; presence of magnesium (5 mM MgCl2)): prenylated products were readily observed; prenyltransferase activity of ORF2 (Orf2 [2]; either prenyl donor FPP or GPP): prenyltransferase activity was observed; prenylated products detected by thin layer chromatography (Orf2 [2]; Orf2 incubated with 1,6-DHN and GPP): readily detected; prenyltransferase activity of HypSc (HypSc; DMAPP as prenyl donor, absence of Mg2+): Notable prenyltransferase activity was detected"
CCCCCc1cc(O)cc(O)c1C(=O)O [olivetolic acid],active,–,–,–,–
"O=C1C(O)=CC(=O)c2c(O)cc(O)cc21 [flaviolin, 2,5,7-trihydroxy-1,4-naphthoquinone]",–,function as substrates,–,–,–
